Where “and” joins values, the source holds several entries; their conditions need not be identical. Identical values can stand only once.
Columns and labels:
Experiment in all cases: CellTiter-Glo 2.0 cell viability, 7x7 combination dose response matrix, synergy scoring
Format in all cases: cell-based
[1] = test system: MCF7 cell line
[2] = test system: MDA-MB-231 cell line
[3] = test system: MDA-MB-157 cell line; details: first compound 0.41-100 nM
[4] = test system: NCI-H1155 cell line; details: first compound 0.21-100 nM
[5] = test system: EBC-1 cell line
[6] = MCF7, combined with Alpelisib 41-10000 nM, first compound 0.41-33.33 nM
[7] = MCF7, combined with Capivasertib 41-10000 nM, first compound 0.41-100 nM
[8] = MCF7, combined with Everolimus 41-10000 nM, first compound 0.41-100 nM
[9] = MCF7, combined with GNE-477 41-10000 nM, first compound 0.41-100 nM
[10] = MCF7, combined with HS173 41-10000 nM, first compound 0.41-100 nM
[11] = MCF7, combined with KU-0063794 41-10000 nM, first compound 0.41-100 nM
[12] = MCF7, combined with M2698 41-10000 nM, first compound 0.41-100 nM
[13] = MCF7, combined with Serabelisib 41-10000 nM, first compound 0.41-100 nM
[14] = MDA-MB-231, combined with Alpelisib 41-10000 nM, first compound 0.41-100 nM
[15] = MDA-MB-231, combined with Capivasertib 41-10000 nM, first compound 0.41-100 nM
[16] = MDA-MB-231, combined with Everolimus 41-10000 nM, first compound 0.41-100 nM
[17] = MDA-MB-231, combined with GNE-477 41-10000 nM, first compound 0.41-100 nM
[18] = MDA-MB-231, combined with KU-0063794 41-10000 nM, first compound 0.41-100 nM
[19] = combined with Alpelisib 41-10000 nM
[20] = combined with Capivasertib 41-10000 nM
[21] = combined with Everolimus 41-10000 nM
[22] = combined with GNE-477 41-10000 nM
[23] = combined with KU-0063794 41-10000 nM
[24] = combined with Alpelisib 21-10000 nM
[25] = combined with Capivasertib 21-10000 nM
[26] = combined with Everolimus 2.1-1000 nM
[27] = combined with GNE-477 21-10000 nM
[28] = combined with KU-0063794 21-10000 nM
[29] = combined with M2698 21-10000 nM
[30] = EBC-1, combined with Alpelisib 21-10000 nM, first compound 0.21-100 nM
[31] = EBC-1, combined with Capivasertib 21-10000 nM, first compound 0.21-100 nM
[32] = EBC-1, combined with Everolimus 2.1-1000 nM, first compound 0.21-100 nM
[33] = EBC-1, combined with GNE-477 21-10000 nM, first compound 0.21-100 nM
[34] = EBC-1, combined with KU-0063794 21-10000 nM, first compound 0.21-100 nM
[35] = EBC-1, combined with M2698 21-10000 nM, first compound 0.21-100 nM

## Cc1ccc(NC(=O)OCc2ccc3c(c2)C(=O)N(C2CCC(=O)NC2=O)C3)cc1Cl (stereo not shown) [Compound 1-6, [2-(2,6-dioxopiperidin-3-yl)-3-oxo-2,3-dihydro-1H-isoindol-5-yl]methyl N-(3-chloro-4-methylphenyl)carbamate]
[1]; [6]
  Mean Bliss synergy score: 3.23
  Mean Loewe synergy score: 9.38
[1]; MCF7, combined with Alpelisib 41-10000 nM, first compound 0.41-100 nM
  Mean Loewe synergy score: 10.18 and 8.52
[1]; [7]
  Mean Bliss synergy score: 14.01 and 11.86
  Mean Loewe synergy score: 12.75 and 11.61
[1]; [8]
  Mean Bliss synergy score: 10.05
  Mean Loewe synergy score: 17.80
[1]; [9]
  Mean Bliss synergy score: 0.14
  Mean Loewe synergy score: 6.12
[1]; [10]
  Mean Bliss synergy score: 0.74
  Mean Loewe synergy score: 3.72
[1]; [11]
  Mean Bliss synergy score: 5.02
  Mean Loewe synergy score: 9.44
[1]; [12]
  Mean Bliss synergy score: 2.92 and 3.60
  Mean Loewe synergy score: 10.25 and 9.07
[1]; [13]
  Mean Bliss synergy score: 4.69
  Mean Loewe synergy score: 4.49
[1]; combined with Capivasertib, MCF7 cell line (printed in Example 5, lung cancer cell lines), mean across dose response matrix, 72 hrs
  Mean Loewe synergy score: 16.02
[1]; combined with KU-0063794 (41 nM to 10 uM), MCF7 cell line, mean across dose response matrix, 72 hrs
  Mean Loewe synergy score: 9.44
[2]; [14]
  Mean Bliss synergy score: 1.80
  Mean Loewe synergy score: 5.93
[2]; [15]
  Mean Bliss synergy score: 5.75
  Mean Loewe synergy score: 7.02
[2]; [16]
  Mean Bliss synergy score: 8.98
  Mean Loewe synergy score: 11.33
[2]; [17]
  Mean Bliss synergy score: 2.23
  Mean Loewe synergy score: 5.29
[2]; [18]
  Mean Bliss synergy score: 3.19
  Mean Loewe synergy score: 6.78
[2]; MDA-MB-231, combined with M2698 41-10000 nM, first compound 0.41-100 nM
  Mean Loewe synergy score: 4.77 and 5.02
[2]; combined with Everolimus (41 nM to 10 uM), MDA-MB-231 cell line, mean across dose response matrix, 72 hrs
  Mean Bliss synergy score: 8.98
[3]; [19]
  Mean Bliss synergy score: 1.84
  Mean Loewe synergy score: 3.29
[3]; [20]
  Mean Bliss synergy score: 6.73
  Mean Loewe synergy score: 5.04
[3]; [21]
  Mean Bliss synergy score: 4.15
  Mean Loewe synergy score: 9.01
[3]; [22]
  Mean Bliss synergy score: 0.86
  Mean Loewe synergy score: 4.66
[3]; [23]
  Mean Bliss synergy score: 1.22
  Mean Loewe synergy score: 5.42
[3]; combined with M2698 41-10000 nM
  Mean Loewe synergy score: 5.62 and 4.44
[4]; [24]
  Mean Bliss synergy score: 5.23
  Mean Loewe synergy score: 2.10
[4]; [25]
  Mean Bliss synergy score: 5.58
  Mean Loewe synergy score: 4.36
[4]; [26]
  Mean Bliss synergy score: −1.66
  Mean Loewe synergy score: 6.77
[4]; [27]
  Mean Bliss synergy score: 3.25
  Mean Loewe synergy score: 3.14
[4]; [28]
  Mean Bliss synergy score: 3.66
  Mean Loewe synergy score: 2.43
[4]; [29]
  Mean Bliss synergy score: 2.04
  Mean Loewe synergy score: 4.27
[5]; [30]
  Mean Bliss synergy score: 17.01
  Mean Loewe synergy score: 3.84
[5]; [31]
  Mean Bliss synergy score: 16.12
  Mean Loewe synergy score: 6.11
[5]; [32]
  Mean Bliss synergy score: 7.12
  Mean Loewe synergy score: 8.08
[5]; [33]
  Mean Bliss synergy score: 10.24
  Mean Loewe synergy score: 2.07
[5]; [34]
  Mean Bliss synergy score: 8.70
  Mean Loewe synergy score: 4.67
[5]; [35]
  Mean Bliss synergy score: 8.18
  Mean Loewe synergy score: 8.00
[5]; combined with Everolimus (2.1 nM to 1 uM), EBC-1 cell line, mean across dose response matrix, 72 hrs
  Mean Loewe synergy score: 8.08

Source: patent publication US20260166045A1, “COMBINATION THERAPY COMPRISING GSPT1-DIRECTED MOLECULAR GLUE DEGRADERS AND PI3K/AKT/mTOR PATHWAY INHIBITORS” (Monte Rosa Therapeutics, Inc., priority 2022, published 2026)
